Measurements from patent US11339170B1, “Spiropyrrolidine derived antiviral agents” (priority 2021, dated 2022).

Experiments:
[1] = target: SARS-CoV-2 3CL-protease (Severe acute respiratory syndrome coronavirus 2 (2019-nCoV) (SARS-CoV-2), UniProt P0DTD1); assay: SARS-CoV-2 3C-like (3CL) protease fluorescence assay (FRET); format: biochemical
[2] = tested on: 229E human corona virus (hCoV); assay: 229E live virus assay (CPE, ATPlite readout) in MRC-5 cells; format: cell-based, hCoV-229E; details: Human coronavirus 229E, MRC5, 144 h, read-out: 229E EC50

Structure (SMILES) | IC50 [1] [nM] | EC50 [2] [nM]
[2H]C([2H])([2H])N(C(=O)C(=O)Nc1ccccn1)[C@@H](Cc1ccccc1)C(=O)N1C[C@]2(C[C@H]1C#N)C(=O)Nc1ccccc12 [Compound 33] | < 100 | < 100
CC(C)C[C@@H](C(=O)N1C[C@]2(C[C@H]1C#N)C(=O)Nc1ccccc12)N(C)C(=O)C(=O)c1ccc(F)cc1 [Compound 41] | < 100 | < 100
[2H]C([2H])([2H])N(C(=O)C(=O)C(C)(C)C)[C@@H](CCCC)C(=O)N1C[C@]2(C[C@H]1C#N)C(=O)Nc1ccccc12 [Compound 48] | < 100 | < 100
[2H]C([2H])([2H])N(C(=O)C(=O)N1CCCCC1)[C@@H](CC(C)(C)C)C(=O)N1C[C@]2(C[C@H]1C#N)C(=O)Nc1ccccc12 [Compound 29] | 100 to 1000 | < 100
[2H]C([2H])([2H])N(C(=O)C(=O)NC1CC1)[C@@H](Cc1ccccc1)C(=O)N1C[C@]2(C[C@H]1C#N)C(=O)Nc1ccccc12 [Compound 34] | < 100 | < 100
[2H]C([2H])([2H])N(C(=O)C(=O)Nc1ccccc1)[C@@H](Cc1ccccc1)C(=O)N1C[C@]2(C[C@H]1C#N)C(=O)Nc1ccccc12 [Compound 32] | < 100 | < 100
[2H]C([2H])([2H])N(C(=O)C(=O)Nc1cnc2ccccc2c1)[C@@H](CC1CC1)C(=O)N1C[C@]2(C[C@H]1C#N)C(=O)Nc1ccccc12 [Compound 51] | < 100 | < 100
[2H]C([2H])([2H])N(C(=O)C(=O)Nc1c(C)cccc1C)[C@@H](CC(C)(C)C)C(=O)N1C[C@]2(C[C@H]1C#N)C(=O)Nc1ccccc12 [Compound 35] | < 100 | < 100
